# In patent publication US7223759B2, “Antibacterial 3,5-diaminopiperidine-substituted aromatic and heteroaromatic compounds” (Anadys Pharmaceuticals, Inc., priority 2003, dated 2007):
# System: Escherichia coli (ATCC25922) or Staphylococcus aureus (ATCC25923)
# Test: Antibacterial MIC, microdilution method in Mueller-Hinton medium
# Type: cell-based
# Details: Escherichia coli, 18 h, MIC in E. coli or S. aureus; two-fold serial dilutions 64 to 0.5 μg/ml in duplicate; 18 hours of incubation at 35° C.; read-out: Potency (MIC)
# Description: The antibacterial activity of the Formula I compounds was evaluated against standard bacterial strains by determining the minimal inhibitory concentration (MIC) to block growth. Each drug was assayed by the microdilution method in Mueller-Hinton medium, as recommended by the National Committee for Clinical Laboratory Standards. Approved Standard M7-A5: Methods for Dilution Antimicrobial Susceptibility Tests for Bacteria That Grow Aerobically 5th Ed. (National Committee for Clinical Laboratory Standards, Wayne, Pa., 2000). The tested bacterial strains included Escherichia coli (American Type Collection ATCC25922), Staphylococcus aureus (ATCC25923), and Pseudomonas aeruginosa (ATCC27853). Two-fold serial dilutions of each compound ranging from 64 to 0.5 μg/ml were tested in duplicate. The MIC was determined as the lowest concentration of each compound that prevented bacterial growth after 18 hours of incubation at 35° C. […] The mass of each compound in the Table was confirmed by LC-MS.
row,MIC [µg/mL],Structure (SMILES)
1,> 64,"Cl.N[C@@H]1C[C@H](N)CN(c2nc(N3C[C@H](N)C[C@H](N)C3)nc(-n3cnc4ccccc43)n2)C1 [1-(4,6-Bis-((3R,5S)-3,5-diamino-piperidin-1-yl)-[1,3,5]triazin-2-yl)-1H-benzoimidazole]"
2,> 64,"COc1ccc(NC(=O)c2ccc(Cl)cc2O)c(Nc2nc(N3CCCCC3)nc(N3CCCCC3)n2)c1.Cl [BN-[2-(4-chloro-2-hydroxy-benzoylamino)-5-methoxy-phenyl]-4,6-Bis-((3R,5S)-3,5-diamino-piperidin-1-yl)-[1,3,5]triazine-2-amine]"
3,< 64,"Cl.Nc1ccc(S(=O)(=O)Nc2ccc(Nc3nc(N4CCCCC4)nc(N4CCCCC4)n3)cc2O)cc1 [N-[4-(4-amino-benzenesulfonylamino)-3-hydroxy-phenyl]-4,6-Bis-((3R,5S)-33,5-diamino-piperidin-1-yl)-[1,3,5]triazine-2-amine]"
4,< 64,"Cl.O=C(Nc1ccc(Nc2nc(N3CCCCC3)nc(N3CCCCC3)n2)cc1O)c1c(Cl)cccc1Cl [N-[4-(2,6-dichloro-benzoylamino)-3-hydroxy-phenyl]-4,6-Bis-((3R,5S)-3,5-diamine-piperidin-1-yl)-[1,3,5]triazine-2-amine]"
5,> 64,"N[C@@H]1C[C@H](N)CN(c2nc(Nc3ccc(S(=O)(=O)Nc4ccc5cn[nH]c5c4)cc3)nc(N3C[C@H](N)C[C@H](N)C3)n2)C1 [N-[4-(1H-indazol-6-ylsulfamoyl)-phenyl]-4,6-Bis-((3R,5S)-3,5-diamino-piperidin-1-yl)-[1,3,5]triazine-2-amine]"
6,> 64,"N[C@@H]1C[C@H](N)CN(c2nc(Nc3ccccc3N3CCOCC3)nc(N3C[C@H](N)C[C@H](N)C3)n2)C1 [N-(2-morpholin-44-yl-phenyl)-4,6-Bis-((3R,5S)-3,5-diamino-piperidin-1-yl)-[1,3,5]triazine-2-amine]"
7,> 64,"Cl.Oc1cccc(C2CCN(c3nc(N4CCCCC4)nc(N4CCCCC4)n3)CC2)c1 [3-[1-(4,6-Bis-((3R,5S)-3,5-diamino-piperidin-1-yl)-[1,3,5]triazin-2-yl)-piperidin-4-yl]-phenyl]"
8,< 16,"COc1nc(Nc2ccc(C(=O)CC(=O)Nc3ccccc3Cl)cc2)nc(N2C[C@H](N)C[C@H](N)C2)n1.Cl [N-(2-Chloro-phenyl)-3-{4-[4-((3R,5S)-3,5-diamino-piperidin-1-yl)-6-methoxy-[1,3,5]triazin-2-ylamino]-phenyl}-3-oxo-propionamide]"

# Same assay, conditions: Escherichia coli, 18 h, read-out: Potency (MIC)
row,Structure (SMILES),MIC [µg/mL]
1,"NC[C@@H]1C[C@H](CN)CN(c2nc(Nc3ccc(C(=O)CC(=O)Nc4ccccc4Cl)cc3)nc(N3C[C@H](N)C[C@H](N)C3)n2)C1 [3-{4-[4-((3R,5S)-3,5-Bis-(aminomethyl)-piperidin-1-yl)-6-((3R,5S)-3,5-diamino-piperidin-1-yl)-[1,3,5]triazin-2-ylamino]-phenyl}-N-(2-chloro-phenyl)-3-oxo-propionamide]",< 64
2,"CN(c1nc(N2C[C@H](N)C[C@H](N)C2)nc(N2C[C@H](N)C[C@H](N)C2)n1)C1CCN(Cc2ccccc2)C1 (stereo partly drawn) [N-(1-Benzyl-pyrrolidin-3-yl)-N-methyl-4,6-Bis-((3R,5S)-3,5-diamino-piperidin-1-yl)-[1,3,5]triazine-2-amine]",< 64
3,"N[C@@H]1C[C@H](N)CN(c2nc(Nc3ccc(NC(=O)c4ccc(Cl)cc4)c(O)c3)nc(N3C[C@H](O)C[C@@H](O)C3)n2)C1 [4-Chloro-N-{4-[4-((3S,5R)-3,5-diamino-piperidin-1-yl)-6-((3R,5R)-3,5-dihydroxy-piperidin-1-yl)-[1,3,5]triazin-2-ylamino]-2-hydroxy-phenyl}-benzamide]",< 64
4,"N[C@@H]1C[C@H](N)CN(c2nc(Nc3ccc(NC(=O)c4ccc(Cl)cc4)c(O)c3)nc(NC3CCCNC3)n2)C1 (stereo partly drawn) [4-Chloro-N-{4-[4-((3S,5R)-3,5-diamino-piperidin-1-yl)-6-(piperidin-3-ylamino)-[1,3,5]triazin-2-ylamino]-2-hydroxy-phenyl}-benzamide]",< 16
5,"Cc1ccc(C(=O)Nc2ccc(Nc3nc(N4C[C@H](N)C[C@H](N)C4)nc(N4C[C@@H](N)C[C@@H](O)C4)n3)cc2O)cc1 [N-{4-[4-((3S,5R)-3-Amino-5-hydroxy-piperidin-1-yl)-6-((3R,5S)-3,5-diamino-piperidin-1-yl)-[1,3,5]triazin-2-ylamino]-2-hydroxy-phenyl}-4-methyl-benzamide]",< 64
6,"N[C@@H]1C[C@H](N)CN(c2nc(Nc3ccc4c(c3)-c3ccccc3C4=O)nc(N3C[C@@H](N)[C@@H](N)C3)n2)C1 [3-[4-((3R,5S)-3,5-Diamino-piperidin-1-yl)-6-((3R,4S)-3,4-diamino-pyrrolidin-1-yl)-[1,3,5]triazin-2-ylamino]-fluoren-9-one]",< 64
7,"NC[C@@H]1C[C@@H](O)CN1c1nc(Nc2ccc(C(=O)CC(=O)Nc3ccc4c(c3)OC(F)(F)O4)cc2)nc(N2C[C@H](N)C[C@H](N)C2)n1 [3-{4-[4-((2S,4R)-2-Aminomethyl-4-hydroxy-pyrrolidin-1-yl)-6-((3R,5S)-3,5-diamino-piperidin-1-yl)-[1,3,5]triazin-2-ylamino]-phenyl}-N-(2,2-difluoro-benzo[1,3]dioxol-5-yl)-3-oxo-propionamide]",< 16
8,"COc1cc(NC(=O)CC(=O)c2ccc(Nc3nc(N4C[C@H](N)C[C@H](N)C4)nc(N4C[C@H](N)C[C@H](N)C4)n3)cc2)c(OC)cc1Cl [N-{4-[2-(4-chloro-2,5-dimethoxy-phenylcarbamoyl)-acetyl]-phenyl}-4,6-Bis-((3R,5S)-3,5-diamino-piperidin-1-yl)-[1,3,5]triazine-2-amine]",< 16
9,"N[C@@H]1C[C@H](N)CN(c2nc(NCCNc3ccc([N+](=O)[O-])cn3)nc(N3C[C@H](N)C[C@H](N)C3)n2)C1 [N-[2-(5-nitro-pyridin-2-ylamino)-ethyl]-4,6-Bis-((3R,5S)-3,5-diamino-piperidin-1-yl)-[1,3,5]triazine-2-amine]",> 64
10,"Cc1ccc(S(=O)(=O)N(Cc2ccccc2)c2ccc(Nc3nc(N4C[C@H](N)C[C@H](N)C4)nc(N4CCC[C@@H](O)C4)n3)c(O)c2)cc1 [N-Benzyl-N-{4-[4-((3R,5S)-3,5-diamino-piperidin-1-yl)-6-((R)-3-hydroxy-piperidin-1-yl)-[1,3,5]triazin-2-ylamino]-3-hydroxy-phenyl}-4-methyl-benzenesulfonamide]",< 64
11,"N[C@@H]1C[C@H](N)CN(c2nc(Nc3ccc(NC(=O)c4ccc5ccccc5c4O)cc3)nc(N3C[C@@H](N)[C@@H](N)C3)n2)C1 [1-Hydroxy-naphthalene-2-carboxylic acid {4-[4-((3R,5S)-3,5-diamino-piperidin-1-yl)-6-((3R,4S)-3,4-diamino-pyrrolidin-1-yl)-[1,3,5]triazin-2-ylamino]-phenyl}-amide]",< 16
12,"C[C@H](Nc1nc(N2C[C@H](N)C[C@H](N)C2)nc(N2C[C@H](N)C[C@H](N)C2)n1)c1cccc2ccccc12 [N-((S)-1-naphthalen-1-yl-ethyl)-4,6-Bis-((3R,5S)-3,5-diamino-piperidin-1-yl)-[1,3,5]triazine-2-amine]",> 64
13,"N[C@@H]1C[C@H](N)CN(c2nc(Nc3ccc(NC(=O)c4ccc(N5Cc6ccccc6C5)cc4O)c(Cl)c3)nc(N3C[C@H](N)C[C@H](N)C3)n2)C1 [N-{3-chloro-4-[4-(1,3-dihydro-isoindol-2-yl)-2-hydroxy-benzoylamino]-phenyl}-4,6-Bis-((3R,5S)-3,5-diamino-piperidin-1-yl)-[1,3,5]triazine-2-amine]",< 16
14,"N[C@@H]1C[C@H](N)CN(c2nc(Nc3ccc(C(=O)CC(=O)Nc4cccc(CO)c4)cc3)nc(N3C[C@H](N)C[C@H](N)C3)n2)C1 [N-{4-[2-(3-hydroxymethyl-phenylcarbamoyl)-acetyl]-phenyl}-4,6-Bis-((3R,5S)-3,5-diamino-piperidin-1-yl)-[1,3,5]triazine-2-amine]",> 64
15,"N[C@@H]1C[C@H](N)CN(c2nc(NNc3ccccc3)nc(N3C[C@H](N)C[C@H](N)C3)n2)C1 [N-(4,6-Bis-((3R,5S)-3,5-diamino-piperidin-1-yl)-[1,3,5]triazin-2-yl)-N′-Phenyl-hydrazine]",> 64
16,"N[C@@H]1C[C@H](N)CN(c2nc(Nc3ccc(C(=O)N4CCc5cc(Br)ccc54)c(O)c3)nc(N3C[C@H](N)C[C@H](N)C3)n2)C1 [N-[4-(5-bromo-2,3-dihydro-indole-1-carbonyl)-3-hydroxy-phenyl]-4,6-Bis-((3R,5S)-3,5-diamino-piperidin-1-yl)-[1,3,5]triazine-2-amine]",< 16
17,"Cc1ccc(S(=O)(=O)N(Cc2ccccc2)c2ccc(Nc3nc(NC4CCCNC4)nc(N4C[C@H](N)C[C@H](N)C4)n3)cc2O)cc1 (stereo partly drawn) [N-Benzyl-N-{4-[4-((3R,5S)-3,5-diamino-piperidin-1-yl)-6-(piperidin-3-ylamino)-[1,3,5]triazin-2-ylamino]-2-hydroxy-phenyl}-4-methyl-benzenesulfonamide]",< 64
18,"C=Cc1ccc(Nc2nc(N3C[C@H](N)C[C@H](N)C3)nc(N3C[C@H](N)C[C@H](N)C3)n2)cc1 [N-(4-vinyl-phenyl)-4,6-Bis-((3R,5S)-3,5-diamino-piperidin-1-yl)-[1,3,5]triazine-2-amine]",< 64

# Same assay, conditions: MIC in E. coli or S. aureus; two-fold serial dilutions 64 to 0.5 μg/ml in duplicate; 18 hours of incubation at 35° C.
row,Structure (SMILES),Potency (MIC)
1,"NC[C@@H]1CN(c2nc(Nc3ccc(C(=O)Oc4ccccc4)c(O)c3)nc(N3C[C@H](N)C[C@H](N)C3)n2)CC[C@@H]1O [4-[4-((3R,4S)-3-Aminomethyl-4-hydroxy-piperidin-1-yl)-6-((3R,5S)-3,5-diamino-piperidin-1-yl)-[1,3,5]triazin-2-ylamino]-2-hydroxy-benzoic acidphenylester]",− (− means MIC>64 μg/ml in E. coli or S. aureus)
